According to publication PMC10094617, “Iron(III) Complexes with Non-Steroidal Anti-Inflammatory Drugs: Structure, Antioxidant and Anticholinergic Activity, and Interaction with Biomolecules” (International Journal of Molecular Sciences, 2023):

Columns and labels:
[1] = target: T1, bovine serum albumin (BSA) (Bos taurus, UniProt P02769); assay: BSA fluorescence emission quenching (albumin binding); details: for ΔI/Io (%) quenching of BSA fluorescence: BSA 3 μM, λex 295 nm, λem 343 nm; for K albumin-binding constant (BSA): Scatchard equation; for Kq albumin-quenching constant (BSA): Stern–Volmer, τo = 10^−8 s; for relative BSA fluorescence emission intensity (I/Io, %) remaining: λem,max = 343 nm, up to, % of the initial BSA fluorescence
T1 construct: purchased Sigma-Aldrich Co. (St. Louis, MO, USA)
Protocol: The albumin-binding study for complexes 1–3 was performed via fluorescence emission quenching experiments using BSA (3 μM) or HSA (3 μM), respectively, in a buffer solution (containing 15-mM trisodium citrate and […] at pH 7.0). The quenching of the emission intensity of tryptophan residues of BSA at 343 nm or HSA at 351 nm was monitored using complexes 1–3 as quenchers with increasing concentrations. The fluorescence emission spectra were recorded in the range of 300–500 nm, with an excitation wavelength of 295 nm. The quantitative studies of the serum albumin fluorescence spectra were performed after correction by subtracting the spectra of the compounds.
The extent of the inner-filter effect can be roughly estimated with the following formula:(2) Icorr=Imeas×10^ε(λexc)cd/2×10^ε(λem)cd/2 where Icorr = corrected intensity, Imeas = the measured intensity, c = the concentration of the quencher, d = the cuvette (1 cm), ε(λexc), and ε(λem) = the ε of the quencher at the excitation and the emission wavelength, respectively, as calculated from the UV-vis spectra of the complexes.
The Stern–Volmer and Scatchard graphs are used in order to study the interaction of a quencher with serum albumins. The Stern–Volmer quenching equation is used:(3) Io/I=1+Kq×τ0×[Q]=1+KSV×[Q] where Io = the initial tryptophan fluorescence intensity of SA, I = the tryptophan fluorescence intensity of SA after the addition of the quencher, Kq = the quenching constants of SA, KSV = the Stern–Volmer constant, τo = the average lifetime of SA without the quencher, and [Q] = the concentration of the quencher. The value of KSV (M^−1) can be obtained by the slope of the diagram Io/I versus [Q]. Taking τo = 10^−8 s as the fluorescence lifetime of tryptophan in SA, the value of Kq (M^−1s^−1) is calculated from the equation:(4) KSV=Kq×τo and from the Scatchard equation [130]:(5) ΔI/Io/[Q]=n×K−K×ΔI/Io where n is the number of binding sites per albumin and K is the SA-binding constant, K (in M^−1) is calculated from the slope in plots (ΔI/Io)/[Q] versus (ΔI/Io), and n is given by the ratio of y-intercept to the slope.

[2] = Competition with DMSO for hydroxyl radicals; assay type: biochemical; details: compound 0.1 mM; 30 min, 37 °C, pH 7.4
Protocol: (§1) The antioxidant activity of complexes 1–3 was evaluated via their ability to scavenge the free radicals DPPH, hydroxyl, and ABTS. Each experiment was performed in triplicate and the standard deviation of absorbance was less than 10% of the mean.
Competition of the tested compounds with DMSO for hydroxyl radicals: The hydroxyl radicals generated by the Fe^3+/ascorbic acid system were detected according to Nash by the determination of formaldehyde produced from the oxidation of DMSO [155]. The reaction mixture contained EDTA (0.1 mM), Fe^3+ (167 μM), DMSO (33 mM) in phosphate buffer (50 mM, pH 7.4), complexes 1–3 (concentration 0.1 mM), and ascorbic acid (10 mM). After a 30-min incubation at 37 °C, the reaction was stopped with CCl3COOH (17% w/v) and the absorbance at λ = 412 nm was measured. Trolox was used as a reference compound. The competition of the compounds with DMSO for •OH, generated by the Fe^3+/ascorbic acid system, expressed as the percentage of inhibition of formaldehyde production, was used for the evaluation of their hydroxyl radical-scavenging activity (OH%).

[3] = ABTS radical cation scavenging; assay type: biochemical; details: compound 0.1 mM; 1 min after mixing
Protocol: as §1
Assay of radical cation scavenging activity (ABTS^+•): An ABTS cationic radical (ABTS^+•) was produced by reacting an aqueous stock solution (2 mM) of ABTS with 0.17-mM potassium persulfate and allowing the mixture to stand in the dark at room temperature for 12–16 h before use. […] Although the oxidation of ABTS commenced immediately, the absorbance became maximal and stable after 6 h. The radical was stable in this form for more than two days when stored in the dark at room temperature. The ABTS radical solution was diluted with ethanol to an absorbance of 0.70 at 734 nm. After the addition of 10 μL of complexes 1–3 or the standards (0.1 mM) in DMSO, the absorbance was recorded exactly 1 min after initial mixing. The radical scavenging activity of the complexes was expressed as the percentage inhibition of the absorbance of the initial ABTS solution (ABTS%). Trolox was used as a reference compound.

[4] = Solubility of the complexes; assay type: physicochemical

T1 sequence (P02769 25-607): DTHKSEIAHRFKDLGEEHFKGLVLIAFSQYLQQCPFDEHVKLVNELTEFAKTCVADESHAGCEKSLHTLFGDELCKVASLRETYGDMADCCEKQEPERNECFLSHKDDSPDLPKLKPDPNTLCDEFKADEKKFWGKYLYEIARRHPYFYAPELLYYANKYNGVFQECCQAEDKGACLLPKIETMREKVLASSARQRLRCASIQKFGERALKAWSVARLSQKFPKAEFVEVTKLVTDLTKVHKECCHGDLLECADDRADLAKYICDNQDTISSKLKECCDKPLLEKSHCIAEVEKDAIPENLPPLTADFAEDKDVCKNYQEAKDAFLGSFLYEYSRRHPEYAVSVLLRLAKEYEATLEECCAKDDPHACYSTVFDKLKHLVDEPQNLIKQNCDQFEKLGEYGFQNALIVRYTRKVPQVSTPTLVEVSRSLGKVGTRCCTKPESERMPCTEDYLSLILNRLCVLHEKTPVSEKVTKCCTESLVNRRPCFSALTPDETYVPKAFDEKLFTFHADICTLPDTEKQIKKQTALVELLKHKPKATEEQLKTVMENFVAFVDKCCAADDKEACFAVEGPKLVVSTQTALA

Substance | ΔI/Io (%) quenching of BSA fluorescence [1] [%] | K albumin-binding constant (BSA) [1] | Kq albumin-quenching constant (BSA) [1] | relative BSA fluorescence emission intensity (I/Io, %) remaining [1] [%] | OH% (competition % with DMSO for hydroxyl radical) [2] [%] | ABTS% (ABTS radical scavenging activity) [3] [%] | solubility [4]
[Fe3O(dicl)6(MeOH)3][FeCl4]·Hdicl·1.5MeOH∙H2O [Complex 3] | 97.6 | 5.44 (±0.05) × 10^5 M^−1 | 8.45 (±0.31) × 10^13 M^−1s^−1 | 2.4 | 94.31 ± 0.78 | 87.72 ± 0.36 | Soluble in DMSO
[Fe3O(dicl)6(py)3]Cl∙py [Complex 2] | 92.5 | 6.09 (±0.31) × 10^5 M^−1 | 8.70 (±0.43) × 10^13 M^−1s^−1 | 7.5 | 87.89 ± 0.84 | 85.39 ± 0.52 | Soluble in DMSO
